We go through two compounds from patent US20260263376A1, “THERAPEUTIC DELIVERY VECTORS COMPRISING AMPHIPHILIC BLOCK COPOLYMERS” (Swansea University, priority 2023, published 2026).

For one assay, the system named is OVCAR-3 WT. The assay is described as follows: Endocytosis elucidation with chemical inhibitors prior to NP(DiD) treatment, flow cytometry. The note with it: inhibitor before NP treatment. The assay is classed as cell-based. Here is the method:
(§1) FIG. 19 NP(DiD) uptake following 24 h exposure in OVCAR-3 (a) and SKOV-3 (b). Uptake quantification measured using corrected total cell fluorescence method and plotted for 24 (c), 48 (d) and 72 h (e) NP(DiD) treatments. Endocytosis elucidation conducted using chemical inhibitors, prior to NP(DiD) treatments and cells analyzed using flow cytometry. Example of cell population positive for NP8 in SKOV-3 WT (f) and endocytosis pathway distribution graphs for OVCAR-3 WT (g) and SKOV-3 (h).
Internalization and quantification of nanoparticles was characterized using fluorescently labelled nanoparticles, Vybrant DiD™ loaded particles were fabricated (co-dissolution as previously described) followed by spin filtration to remove non-encapsulated dye. 2D Cell cultures were treated with NP(DiD) for 24, 48 and 72 h. 426 Cells were co-stained for nuclei using 16.2 μM Hoescht. Cells were imaged using CLSM or quantified following detachment using CellStream (A2 for DAPI channel, 428 B6 for DiD channel). Corrected total cell fluorescence (CTCF) was calculated.[36] Microtissue penetration was conducted using the same fluorescently labelled NPs. […] Uptake thresholding into binary high and low uptake conditions was conducted using quantification histograms and manual identification of population peaks.

Another assay deals with SKOV-3 WT. The assay is described as above. The assay is classed as cell-based. The settings on record: inhibitor before NP treatment. The protocol:
as §1
Internalization and quantification of nanoparticles was characterized using fluorescently labelled nanoparticles, Vybrant DiD™ loaded particles were fabricated (co-dissolution as previously described) followed by spin filtration to remove non-encapsulated dye. 2D Cell cultures were treated with NP(DiD) for 24, 48 and 72 h. […] Corrected total cell fluorescence (CTCF) was calculated.[36] Microtissue penetration was conducted using the same fluorescently labelled NPs. Spheroids (2×10^3 cells) were seeded 48 h prior to use, 10 spheroids per NP were treated for 24 h with 20 μL stock NP(DiD).[37] […] Data was visualized using MATLAB code form CellStream exports to create violin plots of total populations. […] Nanoparticle, cell counter staining and imaging all conducted as described above. Uptake thresholding into binary high and low uptake conditions was conducted using quantification histograms and manual identification of population peaks.

In the case of NAV 2729, the drop in fluorescence in the assay on OVCAR-3 WT and with SKOV-3 WT was 90% in each case.

On to `CCN(CC)CCCC(C)Nc1ccnc2cc(Cl)ccc12` (stereo not shown) [chloroquine], for which, in the assay with SKOV-3 WT, the “increase in cell population positive for NPs” value is listed as 3% and the “increase in mean florescence” value was 3×10^5.
